In ChEMBL document CHEMBL5143670, “Discovery and preclinical profile of LX-039, a novel indole-based oral selective estrogen receptor degrader (SERD)” (Bioorg Med Chem Lett, 2022):

How the values were obtained:
[1] = Binding affinity to estrogen receptor (unknown origin); set-up: species or system Homo sapiens
[2] = Induction of estrogen receptor degradation in human MCF7 cells incubated for 4 hrs by in-cell Western assay; type: cell-based; details: MCF7, 4 h
[3] = Volume of distribution in iv dosed CD-1 mouse; type: ADME, organism-based; details: in vivo
[4] = Oral bioavailability in CD-1 mouse at 2.5 mg/kg; type: ADME, organism-based; details: in vivo; for bioavailability: CD-1, mouse
[5] = Cmax in CD-1 mouse at 2.5 mg/kg, po; type: ADME, organism-based; set-up: dose 2.5 mg/kg, route po; details: in vivo
[6] = Clearance in iv dosed CD-1 mouse; type: ADME, organism-based; details: in vivo
MCF7 [7] = test: Antiproliferative activity against human MCF7 cells measured after 5 days by CellTiter-GLo luminescent assay; type: functional, cell-based; details: MCF7, 120 h
[8] = AUC (0 to 24 hrs) in CD-1 mouse at 2.5 mg/kg, po; type: ADME, organism-based; set-up: time < 24 hr, dose 2.5 mg/kg, route po; details: in vivo; for AUC(0-t) at 24 h: CD-1, mouse
[9] = Toxicity in mouse xenografted with human MCF7 cells assessed as body weight change at 20 mg/kg, po administered once daily for 21 days; type: organism-based; details: in vivo, 504 h, time 21 day
MCF7 [10] = test: Antitumor activity against human MCF7 cells xenografted in mouse assessed as tumor growth inhibition at 20 mg/kg, po administered once daily for 21 days; type: functional; details: MCF7, 504 h, time 21 day, read-out: TGI
[11] = Volume of distribution in iv dosed Sprague-Dawley rat; type: ADME, organism-based; details: in vivo
[12] = AUC (0 to 24 hrs) in Sprague-Dawley rat at 1 mg/kg, iv; type: ADME, organism-based; set-up: time < 24 hr, dose 1 mg/kg, route iv; details: in vivo
[13] = Permeability of the compound from apical to basolateral side in human Caco-2 cells; type: ADME, cell-based; details: read-out: permeability
[14] = Cmax in Sprague-Dawley rat at 1 mg/kg, po; type: ADME, organism-based; set-up: dose 1 mg/kg, route po; details: in vivo
[15] = Metabolic stability in mouse hepatocyte assessed as intrinsic clearance measured per 10^6 cells; type: ADME, cell-based; details: hepatocytes, read-out: CLH
Cytochrome P450 2C9 = Cytochrome P450 2C9 (Homo sapiens, UniProt P11712); test: Inhibition of CYP2C9 (unknown origin); type: ADME
Sequence of Cytochrome P450 2C9 (P11712 whole entry): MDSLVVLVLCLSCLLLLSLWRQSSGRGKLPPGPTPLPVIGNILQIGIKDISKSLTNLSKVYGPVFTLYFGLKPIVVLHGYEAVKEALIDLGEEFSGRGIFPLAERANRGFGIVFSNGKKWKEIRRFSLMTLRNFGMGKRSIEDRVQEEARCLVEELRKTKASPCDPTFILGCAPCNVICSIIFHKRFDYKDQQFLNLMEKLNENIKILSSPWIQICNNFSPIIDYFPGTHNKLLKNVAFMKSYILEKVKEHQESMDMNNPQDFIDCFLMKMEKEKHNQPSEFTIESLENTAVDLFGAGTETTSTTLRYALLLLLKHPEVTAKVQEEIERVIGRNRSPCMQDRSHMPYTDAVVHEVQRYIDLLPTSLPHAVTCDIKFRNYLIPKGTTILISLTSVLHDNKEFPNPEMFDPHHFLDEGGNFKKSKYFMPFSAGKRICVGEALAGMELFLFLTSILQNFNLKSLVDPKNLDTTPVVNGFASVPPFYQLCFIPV

[16] = Toxicity in mouse xenografted with human MCF7 cells assessed as change in body weight at 6.5 to 60 mg/kg, po administered once daily for 21 days; type: organism-based; details: in vivo, 504 h, dose 6.5-60 mg/kg, time 21 day
[17] = Protein binding in human plasma assessed as free fraction; type: ADME, cell-free
[18] = Toxicity in Sprague-Dawley rat assessed as adverse effects at 500 mg/kg, po; type: organism-based; details: in vivo
[19] = Metabolic stability in human hepatocytes assessed as intrinsic clearance measured per million cells; type: ADME, cell-based, Hepatocyte; details: read-out: CLH
[20] = Clearance in iv dosed Beagle dog; type: ADME, organism-based, Canis lupus familiaris; details: in vivo
[21] = AUC (0 to 24 hrs) in Beagle dog at 1 mg/kg, iv; type: ADME, organism-based, Canis lupus familiaris; set-up: time < 24 hr, dose 1 mg/kg, route iv; details: in vivo
[22] = Metabolic stability in dog hepatocytes assessed as intrinsic clearance measured per million cells; type: ADME, cell-based, Canis lupus familiaris, Hepatocyte; details: read-out: CLH
[23] = In vivo antagonist activity at estrogen receptor in immature CD-IGS rat assessed as inhibition of estradiol-induced uterine growth by measuring uterine wet weight pretreated with compound for 15 mins followed by estradiol addition administered orally for three days and measured on day 4 relative to control; type: functional; details: route po; time 4 day
[24] = Oral bioavailability in Sprague-Dawley rat at 1 mg/kg; type: ADME, organism-based; details: in vivo
Cytochrome P450 1A2 = molecular target: T1, Cytochrome P450 1A2 (Homo sapiens, UniProt P05177); test: Inhibition of CYP1A2 (unknown origin); type: ADME
T1 sequence (P05177 whole entry): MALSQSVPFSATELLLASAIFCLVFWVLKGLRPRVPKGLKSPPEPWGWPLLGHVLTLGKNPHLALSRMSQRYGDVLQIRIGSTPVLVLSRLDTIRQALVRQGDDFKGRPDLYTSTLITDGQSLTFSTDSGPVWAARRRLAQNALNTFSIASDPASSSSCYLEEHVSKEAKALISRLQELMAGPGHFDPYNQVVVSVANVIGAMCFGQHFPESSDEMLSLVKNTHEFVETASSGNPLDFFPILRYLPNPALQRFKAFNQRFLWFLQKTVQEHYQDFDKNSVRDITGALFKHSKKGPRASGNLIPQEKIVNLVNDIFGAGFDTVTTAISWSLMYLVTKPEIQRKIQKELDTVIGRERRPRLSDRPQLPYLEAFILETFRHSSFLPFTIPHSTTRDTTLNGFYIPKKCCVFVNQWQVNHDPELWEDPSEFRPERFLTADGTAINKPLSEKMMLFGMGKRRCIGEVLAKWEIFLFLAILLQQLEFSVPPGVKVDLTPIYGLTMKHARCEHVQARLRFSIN

MCF7 [25] = test: Antitumor activity against human MCF7 cells xenografted in mouse assessed as tumor growth inhibition when administered orally once daily for 21 days; type: functional, cell-based; details: dose 6.5-60 mg/kg, route po, time 21.0 day, DDE = dose-dependent effect
Cytochrome P450 2D6 = Cytochrome P450 2D6 (Homo sapiens, UniProt P10635); test: Inhibition of CYP2D6 (unknown origin); type: ADME
Sequence of Cytochrome P450 2D6 (P10635 whole entry): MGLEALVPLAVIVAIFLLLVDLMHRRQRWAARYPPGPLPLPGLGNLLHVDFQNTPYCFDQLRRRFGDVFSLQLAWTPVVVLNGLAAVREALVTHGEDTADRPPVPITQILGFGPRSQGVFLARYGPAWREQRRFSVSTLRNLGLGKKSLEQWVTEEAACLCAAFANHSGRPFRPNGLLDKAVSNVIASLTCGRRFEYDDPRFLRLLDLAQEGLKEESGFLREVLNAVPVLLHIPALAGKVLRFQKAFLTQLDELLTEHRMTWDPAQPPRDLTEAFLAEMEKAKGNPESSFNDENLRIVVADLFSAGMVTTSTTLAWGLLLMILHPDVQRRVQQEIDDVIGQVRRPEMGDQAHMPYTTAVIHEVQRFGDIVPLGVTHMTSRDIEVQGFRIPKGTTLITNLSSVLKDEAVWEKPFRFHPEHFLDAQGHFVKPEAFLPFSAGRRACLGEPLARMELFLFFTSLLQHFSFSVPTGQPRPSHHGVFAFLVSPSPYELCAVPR

Cytochrome P450 2C19 = Cytochrome P450 2C19 (Homo sapiens, UniProt P33261); test: Inhibition of CYP2C19 (unknown origin); type: ADME
Sequence of Cytochrome P450 2C19 (P33261 whole entry): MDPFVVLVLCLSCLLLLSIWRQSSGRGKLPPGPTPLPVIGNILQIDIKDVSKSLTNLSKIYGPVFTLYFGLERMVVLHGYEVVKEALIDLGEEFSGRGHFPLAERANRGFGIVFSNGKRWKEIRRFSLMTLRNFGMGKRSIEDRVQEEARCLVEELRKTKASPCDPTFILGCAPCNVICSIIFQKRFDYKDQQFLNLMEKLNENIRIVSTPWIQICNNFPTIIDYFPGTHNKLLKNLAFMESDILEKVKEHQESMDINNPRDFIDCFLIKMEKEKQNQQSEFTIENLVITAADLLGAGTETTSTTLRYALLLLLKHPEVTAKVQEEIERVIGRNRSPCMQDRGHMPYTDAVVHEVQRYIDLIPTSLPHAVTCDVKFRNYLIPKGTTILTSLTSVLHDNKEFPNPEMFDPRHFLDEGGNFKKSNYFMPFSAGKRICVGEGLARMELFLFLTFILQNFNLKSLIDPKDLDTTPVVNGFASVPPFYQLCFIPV

[26] = AUC (0 to 24 hrs) in Beagle dog at 1 mg/kg, po; type: ADME, organism-based, Canis lupus familiaris; set-up: time < 24 hr, dose 1 mg/kg, route po; details: in vivo
[27] = AUC (0 to 24 hrs) in Sprague-Dawley rat at 1 mg/kg, po; type: ADME, organism-based; set-up: time < 24 hr, dose 1 mg/kg, route po; details: in vivo
MCF7 [28] = test: Antitumor activity against human MCF7 cells xenografted in mouse assessed as tumor shrinkage by measuring tumor growth inhibition at 60 mg/kg, po administered once daily for 21 days; type: functional; details: MCF7, 504 h, time 21 day, read-out: TGI
[29] = Genotoxicity in Salmonella typhimurium by Ames test; type: toxicity; details: salmonella enterica subsp. enterica serovar typhimurium
[30] = C0 in Sprague-Dawley rat at 1 mg/kg, iv; type: ADME, organism-based; details: in vivo
[31] = Cmax in Beagle dog at 1 mg/kg, po; type: ADME, organism-based, Canis lupus familiaris; set-up: dose 1 mg/kg, route po; details: in vivo
[32] = Efflux ratio of apparent permeability from basolateral to apical side over apical to basolateral side in human Caco-2 cells; type: ADME, cell-based
[33] = Clearance in iv dosed Sprague-Dawley rat; type: ADME, organism-based; details: in vivo
[34] = C0 in Beagle dog at 1 mg/kg, iv; type: ADME, organism-based, Canis lupus familiaris; details: in vivo
MCF7 [35] = test: Antitumor activity against tamoxifen-resistant human MCF7 cells xenografted in mouse assessed as tumor growth inhibition at 200 mg/kg, po dosed once daily for 21 days relative to control; type: functional; details: MCF7, 504 h, time 21 day, read-out: TGI
[36] = Metabolic stability in rat hepatocytes assessed as intrinsic clearance measured per million cells; type: ADME, cell-based, Hepatocyte; details: read-out: CLH
[37] = Oral bioavailability in Beagle dog at 1 mg/kg; type: ADME, organism-based, Canis lupus familiaris; details: in vivo
Cytochrome P450 3A4 = Cytochrome P450 3A4 (Homo sapiens, UniProt P08684); test: Inhibition of CYP3A4 (unknown origin) using testosterone as substrate; type: ADME
Sequence of Cytochrome P450 3A4 (P08684 whole entry): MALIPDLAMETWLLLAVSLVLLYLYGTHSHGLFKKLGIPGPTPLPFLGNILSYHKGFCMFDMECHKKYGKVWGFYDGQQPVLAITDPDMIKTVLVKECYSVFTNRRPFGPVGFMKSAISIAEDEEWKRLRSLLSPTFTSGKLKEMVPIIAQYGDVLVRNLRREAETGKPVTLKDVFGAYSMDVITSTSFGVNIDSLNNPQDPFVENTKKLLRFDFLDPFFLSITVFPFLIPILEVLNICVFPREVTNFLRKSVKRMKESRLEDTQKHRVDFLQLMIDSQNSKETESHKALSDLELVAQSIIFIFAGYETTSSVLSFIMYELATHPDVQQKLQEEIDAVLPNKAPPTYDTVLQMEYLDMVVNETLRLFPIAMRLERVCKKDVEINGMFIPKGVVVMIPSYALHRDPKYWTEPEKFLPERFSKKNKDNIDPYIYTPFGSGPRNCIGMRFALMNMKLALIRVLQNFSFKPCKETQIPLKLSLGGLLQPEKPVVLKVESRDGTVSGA

[38] = Toxicity in Beagle dog assessed as adverse effects at 1000 mg/kg, po; type: organism-based, Canis lupus familiaris; details: in vivo
[39] = Permeability of the compound from basolateral to apical side in human Caco-2 cells; type: ADME, cell-based; details: read-out: permeability
[40] = Volume of distribution in iv dosed Beagle dog; type: ADME, organism-based, Canis lupus familiaris; details: in vivo
MCF7 [41] = test: Antitumor activity against tamoxifen-resistant human MCF7 cells xenografted in mouse assessed as tumor growth inhibition at 3 mg, po dosed once daily for 21 days relative to control; type: functional; details: time 21 day

Q: Which IC50 [1] does the source give for `CC/C(=C(/c1ccc(/C=C/C(=O)O)cc1)c1[nH]c2ccccc2c1C#N)c1ccc(F)cc1Cl` here?
A: 0.23 nM

Q: And the EC50 [2]?
A: 2.6 nM

Q: And the Vd [3]?
A: 4.28 L/kg

Q: And the bioavailability [4]?
A: 6.21%

Q: And the Cmax [5]?
A: 35 nM

Q: What about the clearance [6] of the same compound?
A: 104 mL/min/kg

Q: And the IC50 (MCF7 [7])?
A: 4.85 nM

Q: And the AUC(0-t) at 24 h [8]?
A: 0.049 µM·h

Q: With `CC/C(=C(/c1ccc(/C=C/C(=O)O)cc1)c1[nH]c2ccccc2c1Cl)c1ccccc1C(F)(F)F` as the compound, how does the IC50 [1] read?
A: 0.82 nM

Q: And the EC50 [2]?
A: 9.95 nM

Q: And the IC50 (MCF7 [7])?
A: 13 nM

Q: Which results are given for `CC/C(=C(/c1ccc(/C=C/C(=O)O)cc1)c1[nH]c2ccccc2c1Cl)c1ccc(Cl)cc1C#N`?
A: IC50 [1]: 0.23 nM; Activity [9]: Non-Toxic; EC50 [2]: 0.735 nM; Vd [3]: 4.48 L/kg; bioavailability [4]: 33.7%; Cmax [5]: 246 nM; clearance [6]: 29.7 mL/min/kg; IC50 (MCF7 [7]): 0.97 nM; AUC(0-t) at 24 h [8]: 0.883 µM·h

Q: What does the source list for `CC/C(=C(/c1ccc(/C=C/C(=O)O)cc1)c1[nH]c2ccccc2c1Cl)c1ccsc1C#N`?
A: IC50 [1]: 0.18 nM; EC50 [2]: 2.25 nM; IC50 (MCF7 [7]): 7.56 nM

Q: What does the source list for `CC/C(=C(/c1ccc(/C=C/C(=O)O)cc1)c1[nH]c2ccccc2c1Cl)c1ccc(F)cc1Cl`?
A: inhibition in vivo at 20 mg/kg (MCF7 [10]): 104%; Vd [11]: 2 L/kg; AUC(0-t) at 24 h [12]: 4.82 µM·h; Papp A→B [13]: 0.94 ×10⁻⁶ cm/s; Cmax [14]: 381 nM; IC50 [1]: 0.99 nM; Activity [9]: Non-Toxic; hepatocyte CLint [15]: 9.8 µL/min/1e6 cells; IC50 (Cytochrome P450 2C9): 5100 nM; Activity [16]: Non-Toxic; fraction unbound [17]: 0.051; Activity [18]: Non-Toxic; EC50 [2]: 2.29 nM; hepatocyte CLint [19]: 15.2 µL/min/1e6 cells; clearance [20]: 0.84 mL/min/kg; Vd [3]: 0.5 L/kg; AUC(0-t) at 24 h [21]: 43.8 µM·h; hepatocyte CLint [22]: 8.6 µL/min/1e6 cells; inhibition (INH) [23]: 94%; bioavailability [24]: 56%; IC50 (Cytochrome P450 1A2): 7700 nM; inhibition (MCF7 [25]): Dde; IC50 (Cytochrome P450 2D6): 14300 nM; IC50 (Cytochrome P450 2C19): 10100 nM; AUC(0-t) at 24 h [26]: 24.2 µM·h; AUC(0-t) at 24 h [27]: 2.7 µM·h; inhibition in vivo at 60 mg/kg (MCF7 [28]): 113%; F ([4]; mouse, po, 2.5 mg/kg): 60.1%; Activity [29]: Non-Toxic; C0 [30]: 2610 nM; Cmax [5]: 1870 nM; Cmax [31]: 2550 nM; efflux ratio [32]: 1.32; clearance [33]: 7.7 mL/min/kg; IC50 (MCF7 [7]): 3.76 nM; C0 [34]: 12800 nM; inhibition in vivo at 200 mg/kg (MCF7 [35]): 91%; hepatocyte CLint [36]: 11.1 µL/min/1e6 cells; bioavailability [37]: 55%; IC50 (Cytochrome P450 3A4): 7000 nM; Activity [38]: Non-Toxic; Papp B→A [39]: 1.25 ×10⁻⁶ cm/s; Vd [40]: 0.42 L/kg; AUC ([8]; mouse, 24 h): 15.329 µM·h

Q: With `CC/C(=C(/c1ccc(/C=C/C(=O)O)cc1)c1cc2ccccc2[nH]1)c1ccc(F)cc1Cl` as the compound, how does the IC50 [1] read?
A: 1.6 nM

Q: What about the EC50 [2] of the same compound?
A: 39 nM

Q: What about the IC50 (MCF7 [7]) of the same compound?
A: 21 nM

Q: With `CC/C(=C(/c1ccc(/C=C/C(=O)O)cc1)c1[nH]c2ccccc2c1Br)c1ccc(F)cc1Cl` as the compound, how does the IC50 [1] read?
A: 0.66 nM

Q: What about the EC50 [2] of the same compound?
A: 2.44 nM

Q: And the IC50 (MCF7 [7])?
A: 8.53 nM

Q: For `C[C@]12CC[C@@H]3c4ccc(O)cc4C[C@@H](CCCCCCCCC[S+]([O-])CCCC(F)(F)C(F)(F)F)[C@H]3[C@@H]1CC[C@@H]2O` (stereo not given in full) [FULVESTRANT], which TGI (MCF7 [41]) is on record?
A: 66%

Q: With `CC/C(=C(/c1ccc(/C=C/C(=O)O)cc1)c1ccc2[nH]ncc2c1)c1ccc(F)cc1Cl` [BRILANESTRANT] as the compound, how does the “inhibition (INH)” value [23] read?
A: 65%

Q: For `CC/C(=C(/c1ccc(/C=C/C(=O)O)cc1)c1[nH]c2ccccc2c1Cl)c1cc(Cl)sc1Cl`, which IC50 [1] is on record?
A: 1.79 nM

Q: And the EC50 [2]?
A: 5.13 nM

Q: What about the IC50 (MCF7 [7]) of the same compound?
A: 20 nM

Q: For `CC/C(=C(/c1ccc(/C=C/C(=O)O)cc1)c1[nH]c2ccccc2c1C)c1ccc(F)cc1Cl`, which EC50 [2] is on record?
A: 1.26 nM

Q: And the IC50 (MCF7 [7])?
A: 4.78 nM
